Data on two molecules can be found in US20090137844A1, “Crystallization process” (Fermion Oy, priority 2005, published 2009).

What all share (assay type): physicochemical
The nature of data set [1]: Solubility in alcoholic solvents.
The nature of data set [2]: Volumetric particle size distribution by laser diffraction (Coulter LS230). Particulars: for Particle size distribution (laser diffraction) LDP 10 / Particle size distribution (laser diffraction) LDP 50 / Particle size distribution (laser diffraction) LDP 90: procedure of Example 1. The method, then: Particle size distribution is analyzed visually using light microscope or by laser diffraction using the following method: Saturated 2-Propanol: To 250 ml of 2-propanol is added approx 1 g of tamsulosin HCl powder and sonicated at room temperature about 30 min. The mixture is let stand overnight, hereafter it is filtered through […] membrane filter. Sample Preparation About 30 mg of tamsulosin HCl is weighed in a 25 ml decanter. 2-4 drops of saturated 2-propanol is added to the sample and stirred with a glass rod. After that 4 ml of saturated 2-propanol is added and the sample is kept in ultra sound for 30 seconds before measuring volumetric particle size distribution using Coulter LS230, Laser Diffraction Particle Size Analyzer.

Data set [3] can be described thus: Crystal particle size by light microscope (visually observed). Particulars: for Size of particle (light microscope), 90% of crystals below: procedure of Example 1. The method, then:
Particle size distribution is analyzed visually using light microscope or by laser diffraction using the following method: In table 1 below there are the results of experiments using different addition temperatures. Procedure is the same as above.

The mark [4] stands for this setting: Example 2: 15% HCl added at 40° C., cooled to 20° C.
Where [5] appears, read: Example 3: Example 2 repeated, HCl addition temperature 20° C.

Counter-ions that a name gives are not always drawn.

In the case of `CCOc1ccccc1OCCNC(C)Cc1ccc(OC)c(S(N)(=O)=O)c1` (centres unmarked) [tamsulosin, 5-[2-[[2-(2-ethoxyphenoxy)ethyl]amino]propyl]-2-methoxybenzene-sulfonamide], in data set [1], the Solubility entry is on record as “poorly soluble”.
Take `CCOc1ccccc1OCCNC(C)Cc1ccc(OC)c(S(N)(=O)=O)c1` (centres unmarked) [tamsulosin hydrochloride, 5-[2-[[2-(2-ethoxyphenoxy)ethyl]amino]propyl]-2-methoxybenzene-sulfonamide]: the “Crystal size distribution (laser diffraction) LDP 10” value in data set [2] (setting [4]) was 5 μm; in data set [2] (setting [5]), 3 μm. Further, the “Crystal size distribution (laser diffraction) LDP 50” value is 20 μm in data set [2] (setting [4]) and 14 μm in data set [2] (setting [5]). Also, the “Crystal size distribution (laser diffraction) LDP 90” value amounted to 36 μm in data set [2] (setting [4]) and 29 μm in data set [2] (setting [5]). In addition, the “Particle size distribution (laser diffraction) LDP 10” value in data set [2] (HCl added at 0° C.) is reported as “LDP 10 = 1 μm”; in data set [2] (HCl added at 10° C.), “LDP 10 = 1 μm”; in data set [2] (HCl added at 20° C.) it was “LDP 10 = 2 μm”; in data set [2] (HCl added at 30° C.), “LDP 10 = 4 μm”; in data set [2] (HCl added at 40° C.), “LDP 10 = 9 μm”. Moreover, the “Particle size distribution (laser diffraction) LDP 50” value in data set [2] (HCl added at 0° C.) is given as “LDP 50 = 3 μm”; in data set [2] (HCl added at 10° C.), “LDP 50 = 5 μm”; in data set [2] (HCl added at 20° C.), “LDP 50 = 7 μm”; in data set [2] (HCl added at 30° C.), “LDP 50 = 15 μm”; in data set [2] (HCl added at 40° C.) it was “LDP 50 = 29 μm”. Besides, the “Particle size distribution (laser diffraction) LDP 90” value was “LDP 90 = 12 μm” in data set [2] (HCl added at 0° C.); “LDP 90 = 10 μm” in data set [2] (HCl added at 10° C.); “LDP 90 = 17 μm” in data set [2] (HCl added at 20° C.); “LDP 90 = 29 μm” in data set [2] (HCl added at 30° C.); “LDP 90 = 55 μm” in data set [2] (HCl added at 40° C.). Also, the results for the “Size below which 90% of the crystals are (laser diffraction)” value in data set [2] (addition temperature about 20° C.) and in data set [2] (addition temperature about 40° C.) were “below 20 micrometers” and “below 60 micrometers”, respectively. Further, the “Size of particle (light microscope), 90% of crystals below” value in data set [3] (HCl added at 0° C.) turned out to be 90% < 3 μm; in data set [3] (HCl added at 10° C.), 90% < 5 μm; in data set [3] (HCl added at 20° C.) it was 90% < 10 μm; in data set [3] (HCl added at 30° C.), 90% < 15 μm; in data set [3] (HCl added at 40° C.) it was 90% < 30 μm; in data set [3] (HCl added at 80° C.) it was 90% < 250 μm. Also, the “Size below which 90% of the crystals are (light microscope)” value in data set [3] (hydrochloride added at e.g. 80° C.) is given as “below 250 micrometers”; in data set [3] (hydrochloride added below about 30° C.), “below 15 micrometers”.
